biological target: T1, P2X7 receptor (Homo sapiens, UniProt Q99572); test: P2X7 calcium mobilization assay, high throughput, antagonist activity (Example 4A); assay type: cell-based; conditions: not given
T1 construct: host or cells: SH-SY5Y
T1 sequence (Q99572 1-595): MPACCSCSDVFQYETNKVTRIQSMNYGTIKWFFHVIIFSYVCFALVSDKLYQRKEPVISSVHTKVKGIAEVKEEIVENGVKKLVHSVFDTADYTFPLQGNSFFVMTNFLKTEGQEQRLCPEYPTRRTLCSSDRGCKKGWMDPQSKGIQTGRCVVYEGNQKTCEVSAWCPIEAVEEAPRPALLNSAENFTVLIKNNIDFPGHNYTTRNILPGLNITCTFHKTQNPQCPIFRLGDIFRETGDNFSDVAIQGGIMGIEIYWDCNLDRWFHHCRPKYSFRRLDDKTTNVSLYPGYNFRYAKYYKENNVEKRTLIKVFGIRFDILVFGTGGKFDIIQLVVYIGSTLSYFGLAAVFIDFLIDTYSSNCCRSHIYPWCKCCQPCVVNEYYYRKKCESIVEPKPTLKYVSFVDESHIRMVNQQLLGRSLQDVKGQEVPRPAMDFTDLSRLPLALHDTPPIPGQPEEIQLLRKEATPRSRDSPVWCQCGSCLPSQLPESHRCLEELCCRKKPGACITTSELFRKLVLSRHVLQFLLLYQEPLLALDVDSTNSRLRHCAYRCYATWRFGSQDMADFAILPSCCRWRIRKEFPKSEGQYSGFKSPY
In short: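 100,000 cells/well, plated day -1. Dye 1 h → rinse → compound 1 h, RT → FLIPR^TETRA Ca2+ mobilization. Max RFU minus mean negative control (no agonist); mean agonist-well max as positive control.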

SMILES | IC50 [µM]
CC1(C)CCCN(C(=O)c2cn3c(C(=O)NC[C@@H]4CC[C@H]5C[C@@H]4C5(C)C)cccc3n2)C1 [Compound 491, N-{[(1S,2R,5S)-6,6-dimethylbicyclo [3.1.1]hept-2-yl]methyl}-2-[(3,3-dimethyl-piperidin-1-yl)carbonyl]imidazo [1,2-a]pyridine-5-carboxamide] | < 2

same assay, conditions: 50% decrease in the fluorescence response of cells exposed to 80 μM 2′(3′)-O-(4-benzoyl-benzoyl)adenosine 5′-triphosphate; Example 4A; read-out: IC50

SMILES | IC50 [µM]
CC(C)NCc1cn2c(C(=O)NCC34CC5CC(CC(C5)C3)C4)cccc2n1 [Compound 597, N-(adamantan-1-ylmethyl)-2-[(isopropylamino)methyl]imidazo [1,2-a]pyridine-5-carboxamide] | < 2
CC1(C)[C@H]2CC[C@@H](CNC(=O)c3cccc4nc(C(=O)N[C@@H]5CCCC[C@H]5O)cn34)[C@@H]1C2 [Compound 519, 5-N-{[(1S,2R,5S)-6,6-dimethylbicyclo[3.1.1]hept-2-yl]methyl}-2-N-[(1R,2R)-2-hydroxycyclohexyl] imidazo[1,2-a]pyridine-2,5-dicarboxamide] | < 2
O=C(CC12CC3CC(CC(C3)C1)C2)Nc1cccc2nc(C(=O)N3CC[C@H](O)C3)cn12 [Compound 419, 2-adamantan-1-yl-N-(2-{[(3S)-3-hydroxypyrrolidin-1-yl]carbonyl}imidazo [1,2-a]pyridin-5-yl)acetamide] | < 2
O=C(NCC12CC3CC(CC(C3)C1)C2)c1cccc2nc(CSc3ncc[nH]3)cn12 [Compound 542, N-(adamantan-1-ylmethyl)-2-[(1H-imidazol-2-ylthio)methyl] imidazo [1,2-a]pyridine-5-carboxamide] | < 2
O=C(NCC12CC3CC(CC(C3)C1)C2)c1cccc2nc(CN3C[C@H](O)CC3=O)cn12 [Compound 538, N-(adamantan-1-ylmethyl)-2-{[(4R)-4-hydroxy-2-oxopyrrolidin-1-yl]methyl}imidazo[1,2-a]pyridine-5-carboxamide] | < 2
CC1(C)C2CC[C@H](CNC(=O)c3cccc4nc(CC(=O)N5CCC[C@@H](N)C5)cn34)C1C2 (relative stereo) [Compound 550, rel-2-{2-[(3R)-3-aminopiperidin-1-yl]-2-oxoethyl}-N-{[(2S)-6,6-dimethylbicyclo[3.1.1]hept-2-yl]methyl}imidazo[1,2-a]pyridine-5-carboxamide] | < 2

same assay, conditions: 50% decrease in the fluorescence response of cells exposed to 80 μM of 2′(3′)-O-(4-benzoyl-benzoyl)adenosine 5′-triphosphate; Example 4A; read-out: IC50

SMILES | IC50 [µM]
CC(C(=O)N1CC[C@@H](N)C1)c1cn2c(C(=O)NCC34CC5CC(CC(C5)C3)C4)cccc2n1 (some centres unmarked) [Compound 752, N-(adamantan-1-ylmethyl)-2-[2-(3-aminopyrrolidin-1-yl)-1-methyl-2-oxoethyl]imidazo [1,2-a]pyridine-5-carboxamide] | < 2
CC1(C)C2CC[C@H](CNC(=O)c3cccc4nc(CC(=O)NC5CCCC5)cn34)C1C2 (stereo partly drawn) [Compound 791, 2-[2-(cyclopentylamino)-2-oxoethyl]-N-{[(2S)-6,6-dimethylbicyclo [3.1.1]hept-2-yl]methyl}imidazo [1,2-a]pyridine-5-carboxamide] | < 2
COC(=O)C(Cc1cn2c(C(=O)NCC34CC5CC(CC(C5)C3)C4)cccc2n1)c1ccccn1 (centres unmarked) [Compound 758, methyl 3-{5-[(adamantan-1-ylmethyl)carbamoyl]imidazo[1,2-a]pyridin-2-yl}-2-pyridin-2-ylpropanoate] | < 2
O=C(NCC12CC3CC(CC(C3)C1)C2)c1cccc2nc(C(=O)N3CC[C@@H](NCCO)C3)cn12 [Compound 747, N-(adamantan-1-ylmethyl)-2-({3-[(2-hydroxyethyl)amino]pyrrolidin-1-yl}carbonyl)imidazo[1,2-a]pyridine-5-carboxamide] | < 2

same assay, conditions: 50% decrease in the fluorescence response of cells exposed to 80 μM of 2′(3′)-O-(4-benzoyl-benzoyl)adenosine 5′-triphosphate; determined as in Example 4A; read-out: IC50

SMILES | IC50 [µM]
O=C(NCC12CC3CC(CC(C3)C1)C2)c1cccc2nc(Cn3nnnc3N3CCOCC3)cn12 [Compound 828, N-(adamantan-1-ylmethyl)-2-[(5-morpholin-4-yl-1H-tetrazol-1-yl)methyl]imidazo [1,2-a]pyridine-5-carboxamide] | < 2
CC(C)CC(CNC(=O)c1cccc2nc(CC(=O)N3CCC[C@@H](N)C3)cn12)c1ccc(Cl)cc1 (stereo partly drawn) [Compound 839, 2-{2-[(3R)-3-aminopiperidin-1-yl]-2-oxoethyl}-N-[2-(4-chlorophenyl)-4-methylpentyl] imidazo[1,2-a] pyridine-5-carboxamide] | < 2
O=C(NCC12CC3CC(CC(C3)C1)C2)c1cccc2nc(CSc3nnn[nH]3)cn12 [Compound 853, N-(adamantan-1-ylmethyl)-2-[(1H-tetrazol-5-ylthio)methyl] imidazo [1,2-a]pyridine-5-carboxamide] | < 2
O=C(NCC12CC3CC(CC(C3)C1)C2)c1cccc2nc([C@H]3CC[C@@H](C(=O)O)CC3)cn12 [Compound 954, cis-4-{5-[(adamantan-1-ylmethyl)carbamoyl]imidazo[1,2-a]pyridin-2-yl} cyclohexane-carboxylic acid] | < 2
CCCCCCCC(CNC(=O)c1cccc2nc(CC(=O)O)cn12)c1ccccc1 (centres unmarked) [Compound 966, {5-[(2-phenylnonyl)carbamoyl]imidazo[1,2-a]pyridin-2-yl} acetic acid] | < 2
CC1=NCCN1Cc1cn2c(C(=O)NCC(CC(C)C)c3ccc(Cl)cc3)cccc2n1 (centres unmarked) [Compound 923, N-[2-(4-chlorophenyl)-4-methylpentyl]-2-[(2-methyl-4,5-dihydro-1H-imidazol-1-yl)methyl]imidazo[1,2-a]pyridine-5-carboxamide] | < 2

same assay, conditions: SH-SY5Y cells; 50% decrease in fluorescence response to 80 μM BzATP; read-out: IC50

SMILES | IC50 [µM]
CC(C)CNC(=O)c1cn2c(C(=O)NCC34CC5CC(CC(C5)C3)C4)cccc2n1 [Compound 73, 5-N-(adamantan-1-ylmethyl)-- isobutylimidazo[1,2-a]pyridine-2,5-dicarboxamide] | < 2
CC(C)OCCNC(=O)Cc1cn2c(C(=O)NCC34CC5CC(CC(C5)C3)C4)cccc2n1 [Compound 156, N-(adamantan-1-ylmethyl)-2-{2-[(2-isopropoxyethyl)amino]-2-oxoethyl}imidazo[1,2-a]pyridine-5-carboxamide] | < 2
CCOCCNC(=O)Cc1cn2c(C(=O)NCC34CC5CC(CC(C5)C3)C4)cccc2n1 [Compound 155, N-(adamantan-1-ylmethyl)-2-{2-[(2-ethoxyethyl)amino]-2-oxoethyl}imidazo[1,2-a]pyridine-5-carboxamide] | < 2
O=C(NCC12CC3CC(CC(C3)C1)C2)c1cccc2nc(CC(=O)N3CCCC3)cn12 [Compound 180, N-(adamantan-1-ylmethyl)-2-(2-oxo-2-pyrrolidin-1-ylethyl)imidazo[1,2-a]pyridine-5-carboxamide] | < 2
Nc1nnn(Cc2cn3c(C(=O)NCC45CC6CC(CC(C6)C4)C5)cccc3n2)n1 [Compound 206, N-(adamantan-1-ylmethyl)-2-[(5-amino-2H-tetrazol-2-yl)methyl]imidazo[1,2-a]pyridine-5-carboxamide] | < 2
CC1(O)CCN(C(=O)Cc2cn3c(C(=O)NCC45CC6CC(CC(C6)C4)C5)cccc3n2)C1 (centres unmarked) [Compound 60, N-(adamantan-1-ylmethyl)-2-[2-(3-hydroxy-3-methylpyrrolidin-1-yl)-2-oxoethyl]imidazo[1,2-a]pyridine-5-carboxamide] | < 2
CC(C)NC(=O)Cc1cn2c(C(=O)NCC34CC5CC(CC(C5)C3)C4)cccc2n1 [Compound 150, N-(adamantan-1-ylmethyl)-2-[2-(isopropylamino)-2-oxoethyl]imidazo[1,2-a]pyridine-5-carboxamide] | < 2

same assay, conditions: fluorescence response of cells exposed to 80 μM 2′(3′)-O-(4-benzoyl-benzoyl)adenosine 5′-triphosphate; Example 4A; read-out: IC50

SMILES | IC50 [µM]
O=C(CC12CC3CC(CC(C3)C1)C2)Nc1cccc2nc(C(=O)N3CCC(F)(F)CC3)cn12 [Compound 388, 2-adamantan-l-yl-N-(2-[(4,4-difluoropiperidin-1-yl)carbonyl]imidazo [1,2-a]pyridin-5-yl}acetamide] | < 2
CCCN(C)C(=O)c1cn2c(NC(=O)CC34CC5CC(CC(C5)C3)C4)cccc2n1 [Compound 361, 5-[(adamantan-1-ylacetyl)amino]-N-methyl-N-propylimidazo[1,2-a]pyridine-2-carboxamide] | < 2
C=Cc1cn2c(C(=O)NCC34CC5CC(CC(C5)C3)C4)cccc2n1 [Compound 278, N-(adamantan-1-ylmethyl)-2-vinylimidazo[1,2-a]pyridine-5-carboxamide] | < 2
Cc1cc(-c2cn3c(C(=O)NCC45CC6CC(CC(C6)C4)C5)cccc3n2)n(CCO)n1 [Compound 339, N-(adamantan-1-ylmethyl)-2-[1-(2-hydroxyethyl)-3-methyl-1H-pyrazol-5-yl]imidazo[1,2-a]pyridine-5-carboxamide] | < 2
O=C(NCC12CC3CC(CC(C3)C1)C2)c1cccc2nc(CN3CCOCC3)cn12 [Compound 291, N-(adamantan-1-ylmethyl)-2-(morpholin-4-ylmethyl)imidazo[1,2-a]pyridine-5-carboxamide] | < 2

Reference: patent US8431593B2, “Heteroaryl amide derivatives” (H. Lundbeck A/S, priority 2006, dated 2013)
